Laboratory results as given in patent US20240254082A1, “Substituted Isoindoline-1, 3-diketone PDE4 Inhibitor and Pharmaceutical Application Thereof” (SUZHOU INTRAGRAND PHARMA CO., LTD, priority 2021, published 2024).

Key:
Format in all cases: biochemical
[1] = target: PDE3B (Homo sapiens, UniProt Q13370); assay: Selective inhibitory activity assay, PDE3B; conditions: read-out: Inhibition rate (%) of PDE3B
Procedure: (§1) 7. Selective inhibitory activity assay for PDE1, 2, 3, 5, 7, 10 and 11 enzymes
(§2) The selective specificity of compounds for PDE4 was assessed by assaying single concentrations of the compounds. For example, PDE1a enzyme, PDElc enzyme, PDE2a enzyme, PDE3a enzyme, PDE3b enzyme, PDE5a1 enzyme, PDE7a enzyme, PDE7b enzyme, PDE10a1 enzyme and PDE11a4 enzyme were tested. The selective inhibitory effects of different compounds on the enzymatic activities of PDEIC, PDE2A, PDE3B, PDE5A1, PDE7A, and PDE10A1 at concentrations of 10 μM and 1 μM, respectively, are shown in the table below: […]

[2] = target: PDE7A (Homo sapiens, UniProt Q13946); assay: Selective inhibitory activity assay, PDE7A; conditions: read-out: Inhibition rate (%) of PDE7A
Procedure: as §1, §2

[3] = target: PDE2A (Homo sapiens, UniProt O00408); assay: Selective inhibitory activity assay, PDE2A; conditions: read-out: Inhibition rate (%) of PDE2A
Procedure: as §1, §2

[4] = target: PDE5A1 (Homo sapiens, UniProt O76074); assay: Selective inhibitory activity assay, PDE5A1; conditions: read-out: Inhibition rate (%) of PDE5A1
Procedure: as §1, §2

[5] = target: PDE1C (Homo sapiens, UniProt Q14123); assay: Selective inhibitory activity assay, PDE1C; conditions: read-out: Inhibition rate (%) of PDE1C
Procedure: as §1, §2

[6] = target: PDE4D3 (Homo sapiens, UniProt Q08499); assay: Inhibition assay of PDE4D3 enzyme (TR-FRET kit)
Procedure: 2. Inhibition assay of PDE4D3 enzyme:
Materials and Instruments:
FAM substrate: A stock solution of 20 μM FAM substrate was diluted to 200 nM with PDE assay buffer. 12.5 μL of the diluted substrate was added to each reaction well.
5 μL of the compound stock solution was added to 45 μL of DMSO to prepare a 1 mM diluent. 5 μL of the 1 mM diluent was added to 45 μL of PDE assay buffer to prepare a gradient dilution starting point. Then, according to the method of adding 5 μL of the previous concentration solution to 15 μL of PDE assay buffer, gradient dilution was carried out for 9 times to prepare compound working solutions with 10 concentrations. The working solutions were added to compound wells at 2.5 μL/well.
PDE4D3: 0.054 μL of a PDE4D3 recombinase stock solution was added to 1500 μL of PDE buffer, and the mixture was added to all compound wells and positive control wells at 10 μL/well. 10 μL of PDE assay buffer was added to substrate control wells.
Binding solution: 3750 μL of binding buffer A and 3750 μL of binding buffer B were mixed well. Then, 150 μL of a binder was added into the mixture and mixed well. 7.5 μL of a Tb donor was added and mixed well. The obtained mixture was added to all wells at 50 μL/well.
S520=Read value of sample 520 nm
S490=Read value of sample 490 nm
Tb520=Read value of Tb only 520 nm
Tb490=Read value of Tb only 490 nm
FRETp=Positive control FRET
FRETsub=Substrate control FRET.

[7] = target: PDE10A1 (Homo sapiens, UniProt Q9Y233); assay: Selective inhibitory activity assay, PDE10A1; conditions: read-out: Inhibition rate (%) of PDE10A1
Procedure: as §1, §2

Sequence of PDE4D3 (Q08499 1-673 isoform Q08499-2): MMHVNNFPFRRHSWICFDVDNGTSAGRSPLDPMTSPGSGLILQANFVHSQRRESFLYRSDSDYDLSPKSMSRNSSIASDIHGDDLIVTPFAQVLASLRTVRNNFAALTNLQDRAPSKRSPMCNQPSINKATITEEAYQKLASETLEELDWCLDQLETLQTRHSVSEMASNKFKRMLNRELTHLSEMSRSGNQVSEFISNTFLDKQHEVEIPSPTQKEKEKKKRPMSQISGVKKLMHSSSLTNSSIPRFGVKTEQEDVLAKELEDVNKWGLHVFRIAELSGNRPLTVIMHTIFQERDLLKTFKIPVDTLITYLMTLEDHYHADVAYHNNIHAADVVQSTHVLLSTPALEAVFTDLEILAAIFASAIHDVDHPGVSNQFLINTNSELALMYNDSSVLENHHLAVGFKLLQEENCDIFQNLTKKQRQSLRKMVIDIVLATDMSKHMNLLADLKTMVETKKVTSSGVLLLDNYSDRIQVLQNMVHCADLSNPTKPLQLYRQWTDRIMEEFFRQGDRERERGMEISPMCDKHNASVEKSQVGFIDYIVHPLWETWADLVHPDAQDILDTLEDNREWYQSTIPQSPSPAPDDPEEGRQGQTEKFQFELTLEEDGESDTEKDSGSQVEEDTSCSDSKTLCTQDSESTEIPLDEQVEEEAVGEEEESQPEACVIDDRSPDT
Sequence of PDE10A1 (Q9Y233 1-779 isoform Q9Y233-1, species assumed): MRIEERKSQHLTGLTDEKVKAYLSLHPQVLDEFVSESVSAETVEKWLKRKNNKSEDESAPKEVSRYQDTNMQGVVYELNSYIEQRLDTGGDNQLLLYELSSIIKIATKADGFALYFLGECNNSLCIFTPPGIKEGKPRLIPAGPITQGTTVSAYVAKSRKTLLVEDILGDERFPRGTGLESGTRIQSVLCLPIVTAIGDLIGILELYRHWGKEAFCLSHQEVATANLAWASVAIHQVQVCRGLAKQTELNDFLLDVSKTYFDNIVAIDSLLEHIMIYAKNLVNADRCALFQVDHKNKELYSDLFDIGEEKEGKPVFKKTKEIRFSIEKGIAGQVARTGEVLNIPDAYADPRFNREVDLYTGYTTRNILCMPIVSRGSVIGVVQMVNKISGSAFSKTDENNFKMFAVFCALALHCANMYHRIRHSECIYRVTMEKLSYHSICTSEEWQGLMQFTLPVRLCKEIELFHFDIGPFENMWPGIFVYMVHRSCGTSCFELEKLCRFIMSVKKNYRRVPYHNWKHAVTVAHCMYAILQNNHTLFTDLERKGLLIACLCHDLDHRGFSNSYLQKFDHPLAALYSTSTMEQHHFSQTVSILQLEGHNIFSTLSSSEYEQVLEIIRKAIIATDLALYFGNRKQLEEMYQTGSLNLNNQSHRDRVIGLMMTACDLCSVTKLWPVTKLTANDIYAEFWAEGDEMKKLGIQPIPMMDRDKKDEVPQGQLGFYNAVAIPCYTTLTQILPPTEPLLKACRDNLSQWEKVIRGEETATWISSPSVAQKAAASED
Sequence of PDE7A (Q13946 whole entry, species assumed): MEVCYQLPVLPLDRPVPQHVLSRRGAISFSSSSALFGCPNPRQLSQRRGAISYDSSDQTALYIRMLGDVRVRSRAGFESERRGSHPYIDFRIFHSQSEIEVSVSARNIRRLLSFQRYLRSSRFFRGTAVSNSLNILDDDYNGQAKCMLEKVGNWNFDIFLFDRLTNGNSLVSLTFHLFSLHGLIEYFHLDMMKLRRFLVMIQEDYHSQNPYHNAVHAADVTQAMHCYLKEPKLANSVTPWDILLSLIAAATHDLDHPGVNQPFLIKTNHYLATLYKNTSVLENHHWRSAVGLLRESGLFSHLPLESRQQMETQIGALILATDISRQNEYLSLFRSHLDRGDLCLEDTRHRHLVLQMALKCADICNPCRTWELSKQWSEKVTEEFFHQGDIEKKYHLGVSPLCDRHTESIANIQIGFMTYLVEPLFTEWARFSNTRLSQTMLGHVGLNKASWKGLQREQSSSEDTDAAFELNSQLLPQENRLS
Sequence of PDE3B (Q13370 whole entry, species assumed): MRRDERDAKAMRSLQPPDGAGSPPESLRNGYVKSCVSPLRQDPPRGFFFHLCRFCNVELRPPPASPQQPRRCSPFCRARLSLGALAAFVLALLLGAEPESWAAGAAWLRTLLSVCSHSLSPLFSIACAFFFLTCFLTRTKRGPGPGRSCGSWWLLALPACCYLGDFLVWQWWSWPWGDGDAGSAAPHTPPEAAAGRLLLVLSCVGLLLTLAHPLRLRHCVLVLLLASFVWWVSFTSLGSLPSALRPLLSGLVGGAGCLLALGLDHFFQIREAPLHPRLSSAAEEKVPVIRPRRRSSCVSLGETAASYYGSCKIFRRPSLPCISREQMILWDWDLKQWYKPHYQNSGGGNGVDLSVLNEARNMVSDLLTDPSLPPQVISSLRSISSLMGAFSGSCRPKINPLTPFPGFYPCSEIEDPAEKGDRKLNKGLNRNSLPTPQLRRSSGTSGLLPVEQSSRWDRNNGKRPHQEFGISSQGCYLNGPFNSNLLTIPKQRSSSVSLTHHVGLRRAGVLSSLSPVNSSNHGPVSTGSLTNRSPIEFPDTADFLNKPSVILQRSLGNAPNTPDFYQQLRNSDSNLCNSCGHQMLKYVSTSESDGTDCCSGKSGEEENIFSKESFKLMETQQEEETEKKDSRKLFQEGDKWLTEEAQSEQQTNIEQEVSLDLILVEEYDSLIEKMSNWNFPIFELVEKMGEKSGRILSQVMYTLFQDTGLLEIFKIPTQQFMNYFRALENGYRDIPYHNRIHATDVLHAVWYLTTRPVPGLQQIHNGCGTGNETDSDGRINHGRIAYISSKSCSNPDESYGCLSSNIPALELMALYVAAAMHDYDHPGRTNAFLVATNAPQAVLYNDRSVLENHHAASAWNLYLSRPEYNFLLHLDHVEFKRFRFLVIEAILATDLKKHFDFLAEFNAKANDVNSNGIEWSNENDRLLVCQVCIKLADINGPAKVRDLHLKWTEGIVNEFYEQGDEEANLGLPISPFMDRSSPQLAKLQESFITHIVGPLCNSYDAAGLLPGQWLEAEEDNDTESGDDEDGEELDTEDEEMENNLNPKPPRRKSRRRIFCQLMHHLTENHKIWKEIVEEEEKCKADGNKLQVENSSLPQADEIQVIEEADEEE
Sequence of PDE1C (Q14123 whole entry, species assumed): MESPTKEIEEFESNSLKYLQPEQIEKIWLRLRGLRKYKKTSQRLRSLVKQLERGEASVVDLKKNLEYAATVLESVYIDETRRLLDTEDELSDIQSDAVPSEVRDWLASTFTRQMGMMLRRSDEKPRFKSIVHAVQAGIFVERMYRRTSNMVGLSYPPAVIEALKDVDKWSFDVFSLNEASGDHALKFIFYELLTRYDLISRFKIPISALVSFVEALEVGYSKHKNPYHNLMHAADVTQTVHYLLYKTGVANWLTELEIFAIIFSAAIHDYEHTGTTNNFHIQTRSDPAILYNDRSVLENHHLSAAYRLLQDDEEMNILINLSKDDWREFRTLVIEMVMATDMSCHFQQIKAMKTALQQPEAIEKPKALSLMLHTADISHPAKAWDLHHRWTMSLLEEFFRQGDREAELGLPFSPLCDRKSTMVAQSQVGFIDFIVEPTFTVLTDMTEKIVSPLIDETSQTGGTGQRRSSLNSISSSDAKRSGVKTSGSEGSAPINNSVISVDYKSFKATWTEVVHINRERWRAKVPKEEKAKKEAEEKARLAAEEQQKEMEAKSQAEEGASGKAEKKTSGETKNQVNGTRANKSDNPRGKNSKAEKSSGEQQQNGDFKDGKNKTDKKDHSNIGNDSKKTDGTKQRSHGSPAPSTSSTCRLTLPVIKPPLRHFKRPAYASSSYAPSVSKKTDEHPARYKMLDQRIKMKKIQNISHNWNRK
Sequence of PDE2A (O00408 whole entry, species assumed): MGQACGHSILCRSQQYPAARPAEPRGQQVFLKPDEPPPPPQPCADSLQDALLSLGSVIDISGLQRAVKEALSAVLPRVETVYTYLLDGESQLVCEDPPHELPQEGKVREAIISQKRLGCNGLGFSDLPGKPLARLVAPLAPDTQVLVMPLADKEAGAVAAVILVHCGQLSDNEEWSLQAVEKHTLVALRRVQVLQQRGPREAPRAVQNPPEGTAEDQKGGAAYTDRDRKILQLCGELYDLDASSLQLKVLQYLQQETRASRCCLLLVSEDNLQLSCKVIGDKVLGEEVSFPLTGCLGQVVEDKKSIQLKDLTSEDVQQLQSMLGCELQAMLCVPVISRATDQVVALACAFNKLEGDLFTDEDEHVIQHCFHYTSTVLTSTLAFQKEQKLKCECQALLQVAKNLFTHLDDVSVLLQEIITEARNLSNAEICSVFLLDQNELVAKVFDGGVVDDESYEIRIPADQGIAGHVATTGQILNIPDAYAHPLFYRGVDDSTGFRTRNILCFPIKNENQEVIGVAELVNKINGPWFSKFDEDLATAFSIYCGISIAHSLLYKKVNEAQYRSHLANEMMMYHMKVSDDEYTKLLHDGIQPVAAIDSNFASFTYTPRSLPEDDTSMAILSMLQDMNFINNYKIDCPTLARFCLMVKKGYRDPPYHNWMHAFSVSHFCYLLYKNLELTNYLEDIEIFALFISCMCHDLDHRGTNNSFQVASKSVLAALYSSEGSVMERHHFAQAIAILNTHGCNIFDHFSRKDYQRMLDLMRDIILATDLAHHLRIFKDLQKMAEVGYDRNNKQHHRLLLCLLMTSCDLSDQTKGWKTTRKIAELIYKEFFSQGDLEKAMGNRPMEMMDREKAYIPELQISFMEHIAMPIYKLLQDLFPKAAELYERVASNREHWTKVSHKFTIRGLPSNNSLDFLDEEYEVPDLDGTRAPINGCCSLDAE

Which inhibition at 1 µM ([1]; 1 μM) does the source give for CCCCCc1ccc(NC(=O)CF)c2c1C(=O)N([C@H](CS(C)(=O)=O)c1ccc(OC)c(OCC)c1)C2=O [Example 28, (S)-2-[1-(3-ethoxy-4-methoxyphenyl)-2-alkylsulfonylethyl]-4-fluoroacetamido-7-pentyl isoindoline-1,3-diketone] here?
Its inhibition at 1 µM is 3.69%.

And the inhibition at 10 µM ([1]; 10 μM)?
The inhibition at 10 µM was 6.44%.

And the inhibition at 1 µM ([2]; 1 μM)?
The inhibition at 1 µM was 0.55%.

And the inhibition at 10 µM ([2]; 10 μM)?
Its inhibition at 10 µM is 10.5%.

And the inhibition at 1 µM ([3]; 1 μM)?
The inhibition at 1 µM was 0%.

What about the inhibition at 10 µM ([3]; 10 μM) of the same molecule?
The inhibition at 10 µM was 5.83%.

And the inhibition at 1 µM ([4]; 1 μM)?
Its inhibition at 1 µM is 0%.

What about the inhibition at 10 µM ([4]; 10 μM) of the same molecule?
The inhibition at 10 µM was 4.16%.

And the inhibition at 1 µM ([5]; 1 μM)?
The inhibition at 1 µM was 1.46%.

And the inhibition at 10 µM ([5]; 10 μM)?
The inhibition at 10 µM was 24.8%.

And the IC50 [6]?
The IC50 was 5 to 10 nM.

And the inhibition at 1 µM ([7]; 1 μM)?
The inhibition at 1 µM was 29.1%.

And the inhibition at 10 µM ([7]; 10 μM)?
The inhibition at 10 µM was 0.04%.

For CCCCCCCCCc1ccc(NC(=O)CCC)c2c1C(=O)N([C@H](CS(C)(=O)=O)c1ccc(OC)c(OCC)c1)C2=O [Example 16, (S)-2-[1-(3-ethoxy-4-methoxyphenyl)-2-alkylsulfonylethyl]-4-butylamido-7-nonyl isoindoline-1,3-diketone], which IC50 [6] is on record?
The IC50 was over 200 nM.

With CCCCCc1ccc(NC(=O)CC(C)C)c2c1C(=O)N([C@H](CS(C)(=O)=O)c1ccc(OC)c(OCC)c1)C2=O [Example 11] as the molecule, how does the IC50 [6] read?
Its IC50 is over 200 nM.

With CCCCCCCCCc1ccc(NC(=O)CC)c2c1C(=O)N([C@H](CS(C)(=O)=O)c1ccc(OC)c(OCC)c1)C2=O [Example 18, (S)-2-[1-(3-ethoxy-4-methoxyphenyl)-2-alkylsulfonylethyl]-4-propanamido-7-nonyl isoindoline-1,3-diketone] as the molecule, how does the IC50 [6] read?
The IC50 was 50 to 200 nM.

How did the IC50 [6] turn out when CCCCCC(=O)Nc1ccc(CCCCC)c2c1C(=O)N([C@H](CS(C)(=O)=O)c1ccc(OC)c(OCC)c1)C2=O [Example 12] was run?
Its IC50 is over 200 nM.

CCCCCCCCCCCCCc1ccc(NC(C)=O)c2c1C(=O)N([C@H](CS(C)(=O)=O)c1ccc(OC)c(OCC)c1)C2=O [Example 14, (S)-2-[1-(3-ethoxy-4-methoxyphenyl)-2-alkylsulfonylethyl]-4-acetamido-7-tridecyl isoindoline-1,3-diketone] was tested. Which IC50 [6] did it give?
Its IC50 is over 200 nM.

Which IC50 [6] does the source give for CCCCCCCCCc1ccc(NC(=O)C2CC2)c2c1C(=O)N([C@H](CS(C)(=O)=O)c1ccc(OC)c(OCC)c1)C2=O [Example 17, (S)-2-[1-(3-ethoxy-4-methoxyphenyl)-2-alkylsulfonylethyl]-4-cyclopropanamido-7-nonyl isoindoline-1,3-diketone] here?
Its IC50 is over 200 nM.

Which IC50 [6] does the source give for CCCCCc1ccc(NC(=O)COC)c2c1C(=O)N([C@H](CS(C)(=O)=O)c1ccc(OC)c(OCC)c1)C2=O [Example 31] here?
Its IC50 is 50 to 200 nM.

CCCCCCc1ccc2c(c1NC(=O)CC)C(=O)N([C@H](CS(C)(=O)=O)c1ccc(OC)c(OCC)c1)C2=O [Example 23, (S)-2-[1-(3-ethoxy-4-methoxyphenyl)-2-alkylsulfonylethyl]-4-propanamido-6-hexyl isoindoline-1,3-diketone] was tested. Which IC50 [6] did it give?
The IC50 was 50 to 200 nM.

CCCC/C=C/c1ccc2c(c1NC(=O)CCCCl)C(=O)N([C@H](CS(C)(=O)=O)c1ccc(OC)c(OCC)c1)C2=O [Example 2, (S)-2-[1-(3-ethoxy-4-methoxyphenyl)-2-alkylsulfonylethyl]-4-(γ-chlorobutyramido)-5-hexene (−1) yl isoindoline-1,3-diketone] was tested. Which IC50 [6] did it give?
The IC50 was 10 to 50 nM.

For CCCCCCCCc1cc(NC(=O)C2CC2)c2c(c1)C(=O)N([C@H](CS(C)(=O)=O)c1ccc(OC)c(OCC)c1)C2=O [Example 3, (S)-2-[1-(3-ethoxy-4-methoxyphenyl)-2-alkylsulfonylethyl]-4-cyclopropanamido-5-octyl isoindoline-1,3-diketone], which IC50 [6] is on record?
The IC50 was over 200 nM.

CCCCCc1ccc(CNC(C)=O)c2c1C(=O)N([C@H](CS(C)(=O)=O)c1ccc(OC)c(OCC)c1)C2=O [Example 4, (S)-2-[1-(3-ethoxy-4-methoxyphenyl)-2-alkylsulfonylethyl]-4-acetamidomethyl-7-pentyl isoindoline-1,3-diketone] was tested. Which IC50 [6] did it give?
The IC50 was 10 to 50 nM.

With CCCCCCCc1ccc(NC(=O)CCCCl)c2c1C(=O)N([C@H](CS(C)(=O)=O)c1ccc(OC)c(OCC)c1)C2=O [Example 21, (S)-2-[1-(3-ethoxy-4-methoxyphenyl)-2-alkylsulfonylethyl]-4-(γ-chlorobutyramido)-7-heptyl isoindoline-1,3-diketone] as the molecule, how does the IC50 [6] read?
The IC50 was over 200 nM.

Which IC50 [6] does the source give for CCCCCCCCCC(=O)Nc1cccc2c1C(=O)N([C@H](CS(C)(=O)=O)c1ccc(OC)c(OCC)c1)C2=O [Example 8, (S)-2-[1-(3-ethoxy-4-methoxyphenyl)-2-alkylsulfonylethyl]-4-decanamido-7-pentenyl (−1) isoindoline-1,3-diketone] here?
The IC50 was 50 to 200 nM.

CCCCCc1ccc(NC(=O)C2CC2)c2c1C(=O)N([C@H](CS(C)(=O)=O)c1ccc(OC)c(OCC)c1)C2=O [Example 6, (S)-2-[1-(3-ethoxy-4-methoxyphenyl)-2-alkylsulfonylethyl]-4-cyclopropanamido-7-pentyl isoindoline-1,3-diketone] was tested. Which IC50 [6] did it give?
Its IC50 is 50 to 200 nM.

How did the IC50 [6] turn out when CCCCCCc1ccc(NC(=O)CCCCl)c2c1C(=O)N([C@H](CS(C)(=O)=O)c1ccc(OC)c(OCC)c1)C2=O [Example 20, (S)-2-[1-(3-ethoxy-4-methoxyphenyl)-2-alkylsulfonylethyl]-4-(γ-chlorobutyramido)-7-hexyl isoindoline-1,3-diketone] was run?
Its IC50 is 50 to 200 nM.

Which IC50 [6] does the source give for CCCCCc1ccc(NC(=O)CO)c2c1C(=O)N([C@H](CS(C)(=O)=O)c1ccc(OC)c(OCC)c1)C2=O [Example 30] here?
The IC50 was 50 to 200 nM.

For CCCCCCc1ccc2c(c1NC(=O)CCCCl)C(=O)N([C@H](CS(C)(=O)=O)c1ccc(OC)c(OCC)c1)C2=O [Example 1, (S)-2-[1-(3-ethoxy-4-methoxyphenyl)-2-alkylsulfonylethyl]-4-(γ-chlorobutyramido)-5-hexyl isoindoline-1,3-diketone], which IC50 [6] is on record?
The IC50 was 50 to 200 nM.

With CCCCCCCCCCCCCc1ccc(NC(=O)C2CC2)c2c1C(=O)N([C@H](CS(C)(=O)=O)c1ccc(OC)c(OCC)c1)C2=O [Example 15, (S)-2-[1-(3-ethoxy-4-methoxyphenyl)-2-alkylsulfonylethyl]-4-cyclopropanamido-7-tridecyl isoindoline-1,3-diketone] as the molecule, how does the IC50 [6] read?
Its IC50 is over 200 nM.

CCCCCCCCCCCCCc1ccc(NC(=O)CC)c2c1C(=O)N([C@H](CS(C)(=O)=O)c1ccc(OC)c(OCC)c1)C2=O [Example 19, (S)-2-[1-(3-ethoxy-4-methoxyphenyl)-2-alkylsulfonylethyl]-4-propanamido-7-tridecyl isoindoline-1,3-diketone] was tested. Which IC50 [6] did it give?
Its IC50 is over 200 nM.

For CCCCCCCCc1ccc(NC(=O)CCCCl)c2c1C(=O)N([C@H](CS(C)(=O)=O)c1ccc(OC)c(OCC)c1)C2=O [Example 22, (S)-2-[1-(3-ethoxy-4-methoxyphenyl)-2-alkylsulfonylethyl]-4-(γ-chlorobutyramido)-7-octyl isoindoline-1,3-diketone], which IC50 [6] is on record?
Its IC50 is over 200 nM.

How did the IC50 [6] turn out when CCCCc1ccc(NC(=O)CCl)c2c1C(=O)N([C@H](CS(C)(=O)=O)c1ccc(OC)c(OCC)c1)C2=O [Example 26, (S)-2-[1-(3-ethoxy-4-methoxyphenyl)-2-alkylsulfonylethyl]-4-chloroacetamido-7-butyl isoindoline-1,3-diketone] was run?
The IC50 was 10 to 50 nM.

With CCCCCc1ccc(NC(=O)CCC)c2c1C(=O)N([C@H](CS(C)(=O)=O)c1ccc(OC)c(OCC)c1)C2=O [Example 10, (S)-2-[1-(3-ethoxy-4-methoxyphenyl)-2-alkylsulfonylethyl]-4-butylamido-7-pentyl isoindoline-1,3-diketone] as the molecule, how does the IC50 [6] read?
The IC50 was 50 to 200 nM.
